Measured values published in patent US20040014779A1, “Methods and compositions related to IRM compounds and toll-like recptor pathways” (3M Innovative Properties Company, priority 2001, published 2004).
Several values for one entry are separate records, joined by “and”; a condition that tells them apart may be missing. Equal entries are not always repeated. Where two headings read alike, the source gives them in different places.

Tests used:
NF-κB = experiment: NFkB-luc reporter in HEK293 cells with empty vector control; assay type: cell-based, human; details: luciferase signal; for fold induction at 10 µM: Homo sapiens, HEK293, 16 h, read-out: Fold Increase Over DMSO Control, HEK 293 Vector; for Fold Increase Over DMSO Control, HEK 293 Vector: 10 μM, 16 hours
Procedure: (§1) HEK 293 cells were cultured in Minimum Essential Medium (MEM) with 2 mM L-glutamine and Earle's Balanced Salt Solution (Invitrogen Corp., Rockville, Md.) adjusted to contain 1.5 g/L sodium bicarbonate, 0.1 mM non-essential amino acids, and 1.0 mM sodium pyruvate, 90%; heat-inactivated fetal calf serum, 10%. The cells were incubated at 37° C., 8% CO2.
(§2) The cells were co-transfected with human TLR7 or Empty Vector control pIRES (BD Biosciences Clontech, Palo Alto, Calif.) along with NFkB-luc reporter (Stratagene, La Jolla, Calif.) in a 10:1 ratio with Fugene 6 transfection reagent (Roche Diagnostics Corp., Indianapolis, Ind.) following the manufacturer's instructions.
(§3) The cells were stimulated with 1 μL of IRM compounds at 1 mM in DMSO (final concentration of 10 μM) or 1 μL DMSO as a control. The plates were then incubated an additional 16 hours at 37° C., 5% CO2. The luciferase signal was read using the LucLite kit (Packard Instrument Co., Meriden, Conn.). The luminescence was measured on the Topcount NXT (Packard Instrument Co., Meriden, Conn.).

human TLR7 = molecular target: T1, human TLR7 (Homo sapiens, UniProt Q9NYK1); experiment: NFkB-luc reporter in HEK293 cells transfected with human TLR7; assay type: cell-based
T1 construct: expressed in transfected cells; host or cells: HEK293 (pIRES, G-418 selected)
T1 sequence (Q9NYK1 27-1049): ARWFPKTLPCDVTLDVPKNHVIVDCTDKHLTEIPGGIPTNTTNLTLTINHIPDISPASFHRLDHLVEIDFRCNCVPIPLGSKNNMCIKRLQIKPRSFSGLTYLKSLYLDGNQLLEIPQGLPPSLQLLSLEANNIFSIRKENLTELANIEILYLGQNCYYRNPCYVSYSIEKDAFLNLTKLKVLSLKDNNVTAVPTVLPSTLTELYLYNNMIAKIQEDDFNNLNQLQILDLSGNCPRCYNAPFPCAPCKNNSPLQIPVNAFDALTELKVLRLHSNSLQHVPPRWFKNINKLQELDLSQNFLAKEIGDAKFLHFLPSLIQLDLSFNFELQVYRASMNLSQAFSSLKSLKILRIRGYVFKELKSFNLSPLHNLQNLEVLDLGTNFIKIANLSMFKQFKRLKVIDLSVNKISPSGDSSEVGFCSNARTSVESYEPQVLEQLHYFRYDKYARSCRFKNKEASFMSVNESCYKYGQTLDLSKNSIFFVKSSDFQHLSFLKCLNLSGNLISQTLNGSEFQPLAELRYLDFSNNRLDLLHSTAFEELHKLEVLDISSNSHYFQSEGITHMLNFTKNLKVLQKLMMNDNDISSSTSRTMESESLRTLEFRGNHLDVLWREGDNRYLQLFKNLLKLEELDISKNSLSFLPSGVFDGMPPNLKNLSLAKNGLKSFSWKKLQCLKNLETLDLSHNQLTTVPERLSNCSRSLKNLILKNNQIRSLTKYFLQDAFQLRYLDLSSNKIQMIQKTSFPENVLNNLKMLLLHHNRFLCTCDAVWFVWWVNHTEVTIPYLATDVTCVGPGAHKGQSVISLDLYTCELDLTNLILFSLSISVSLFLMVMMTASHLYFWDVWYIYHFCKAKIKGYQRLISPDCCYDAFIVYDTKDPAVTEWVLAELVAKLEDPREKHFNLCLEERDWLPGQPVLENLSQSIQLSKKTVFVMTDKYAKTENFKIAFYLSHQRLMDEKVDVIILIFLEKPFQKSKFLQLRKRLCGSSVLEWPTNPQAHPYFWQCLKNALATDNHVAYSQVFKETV
Procedure: as §1, §2, §3

TLR6 = molecular target: T2, TLR6 (Homo sapiens, UniProt Q9Y2C9); experiment: Anti-TLR6 antibody inhibition of TNF-α production by human PBMC; assay type: cell-based; details: preincubation with anti-TLR6 antibodies; compared with LPS
T2 construct: Peripheral blood mononuclear cells (PBMCS) were isolated; endogenous in cells; host or cells: human PBMC from healthy volunteers
Procedure: Peripheral blood mononuclear cells (PBMCS) were isolated with the Histopaque HybriMax—1077 density gradient (Sigma Chemical Co., St. Louis, Mo.) from healthy human volunteers after obtaining informed consent.
PBMC were resuspended in cRPMI at a concentration of 10^6 cells/ml. 100 μl of cells (10^5 cells) were then added to individual wells of a 96 well U-bottom plate (BD Biosciences Discovery Labware, Bedford, Mass.). Solutions containing cRPMI with 40 μg/ml of the affinity purified anti-TLR6 polyclonal antibody were prepared. 50 μl of the antibody solution was added to cells and incubated for 30 minutes. […] Cells were incubated for 18 hours at 37° C. in an atmosphere of 5% CO2/95% air. Supernatants were collected and frozen at −20° C. for cytokine analysis. The data are presented as % inhibition relative to control.
Data shown are representative of six independent experiments.

[1] = luciferase signal, 10 μM, 16 hours, TLR7 cells

T2 sequence (Q9Y2C9 32-796): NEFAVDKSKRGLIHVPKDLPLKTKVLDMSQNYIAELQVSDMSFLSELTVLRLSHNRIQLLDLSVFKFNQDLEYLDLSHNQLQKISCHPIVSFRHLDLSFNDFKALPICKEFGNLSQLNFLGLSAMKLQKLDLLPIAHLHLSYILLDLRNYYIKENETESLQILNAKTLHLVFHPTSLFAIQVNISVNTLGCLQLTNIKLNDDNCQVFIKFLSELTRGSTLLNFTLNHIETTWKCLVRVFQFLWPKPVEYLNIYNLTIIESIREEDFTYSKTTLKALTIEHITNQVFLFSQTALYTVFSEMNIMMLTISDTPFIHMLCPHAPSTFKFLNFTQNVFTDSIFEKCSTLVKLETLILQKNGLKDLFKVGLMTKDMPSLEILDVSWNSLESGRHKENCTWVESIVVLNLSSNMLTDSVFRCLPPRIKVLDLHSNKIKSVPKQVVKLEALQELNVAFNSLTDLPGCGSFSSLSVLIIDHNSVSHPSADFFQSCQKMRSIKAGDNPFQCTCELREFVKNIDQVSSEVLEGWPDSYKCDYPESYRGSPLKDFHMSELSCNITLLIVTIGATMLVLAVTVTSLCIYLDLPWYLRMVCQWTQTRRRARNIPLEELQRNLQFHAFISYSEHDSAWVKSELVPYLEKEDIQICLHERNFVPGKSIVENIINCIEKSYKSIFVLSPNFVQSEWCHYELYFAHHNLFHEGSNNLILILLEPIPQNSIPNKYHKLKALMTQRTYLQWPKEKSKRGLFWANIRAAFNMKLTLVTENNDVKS
T2 sequence (O60603 21-784 partner): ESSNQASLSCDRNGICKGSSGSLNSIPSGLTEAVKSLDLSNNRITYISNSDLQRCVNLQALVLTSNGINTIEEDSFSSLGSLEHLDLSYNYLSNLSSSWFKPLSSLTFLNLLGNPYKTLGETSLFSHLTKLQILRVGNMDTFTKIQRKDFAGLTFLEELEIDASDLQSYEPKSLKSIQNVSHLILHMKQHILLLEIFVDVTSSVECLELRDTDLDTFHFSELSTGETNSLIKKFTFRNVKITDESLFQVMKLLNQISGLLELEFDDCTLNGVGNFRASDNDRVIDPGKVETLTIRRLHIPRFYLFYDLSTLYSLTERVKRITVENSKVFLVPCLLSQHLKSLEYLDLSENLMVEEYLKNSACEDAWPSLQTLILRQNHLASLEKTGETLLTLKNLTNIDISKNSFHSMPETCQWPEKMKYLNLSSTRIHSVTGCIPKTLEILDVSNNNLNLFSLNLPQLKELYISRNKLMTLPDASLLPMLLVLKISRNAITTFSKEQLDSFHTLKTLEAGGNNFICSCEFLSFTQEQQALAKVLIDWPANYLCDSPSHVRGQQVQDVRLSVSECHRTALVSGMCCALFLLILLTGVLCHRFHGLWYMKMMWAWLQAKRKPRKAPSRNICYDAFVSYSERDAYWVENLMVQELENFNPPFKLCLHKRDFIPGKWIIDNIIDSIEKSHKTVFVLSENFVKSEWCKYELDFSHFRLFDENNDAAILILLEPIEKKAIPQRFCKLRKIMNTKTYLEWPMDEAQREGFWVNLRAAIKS

Row | Compound | fold induction at 10 µM (NF-κB) | Fold Increase Over DMSO Control, HEK293 TLR7 (human TLR7; [1]) | Fold Increase Over DMSO Control, HEK 293 Vector (NF-κB) [fold] | Fold Increase Over DMSO Control, HEK293 TLR7 (human TLR7) [fold] | Effect of anti-TLR6 antibodies on stimulus-induced TNF-α production (in words) (TLR6)
1 | Cc1nc2c(N)nc3ccccc3c2n1CC(C)(C)O.Cl [IRM 1, 4-amino-α,α,2-trimethyl-1H-imidazo[4,5-c]quinoline-1-ethanol hydrochloride] | 0.86 | 3.75 fold |  |  | 
2 | Nc1nc2ccccc2c2c1ncn2CCOCCCc1cccnc1 [IRM 4, 1-{2-[3-(3-pyridyl)propoxy]ethyl}-1H-imidazo[4,5-c]quinolin-4-amine] | 1 | 4.06 fold |  |  | 
3 | CCCCc1nc2c(N)nc3ncccc3c2n1CC(C)C [IRM 5, 2-butyl-1-(2-methylpropyl)-1H-imidazo[4,5-c][1,8]naphthyridin-4-amine] | 1.21 | 1.13 fold |  |  | 
4 | CCCCc1nc2c(N)nc3cnccc3c2n1CC(C)C [IRM 6, 2-butyl-1-(2-methylpropyl)-1H-imidazo[4,5-c][1,7]naphthyridin-4-amine] | 0.95 | 1.25 fold |  |  | 
5 | CCCCc1nc2c(N)nc3cccnc3c2n1CC(C)C [IRM 7, 2-butyl-1-(2-methylpropyl)-1H-imidazo[4,5-c][1,5]naphthyridin-4-amine] | 1.3 | 3.06 fold |  |  | 
6 | CCCCc1nc2c(N)nc3c(c2n1CC(C)C)NCCC3 [IRM 8, 2-butyl-6,7,8,9-tetrahydro-1-(2-methylpropyl)-1H-imidazo[4,5-c][1,5]naphthyridin-4-amine] | 0.91 | 4.59 fold |  |  | 
7 | CCOCc1nc2c(N)nc3c(c2n1CC(C)(C)O)CCCC3 [IRM 9, 4-amino-2-ethoxymethyl-α,α-dimethyl-6,7,8,9-tetrahydro-1H-imidazol[4,5-c]quinoline-1-ethanol] |  |  | 0.81 | 4.67 | 
8 | C[C@H](c1ccccc1)n1cnc2c(N)nc3ccccc3c21 [IRM 10, 1-[R(+)-1-phenylethyl]-1H-imidazo[4,5-c]quinolin-4-amine] |  | 2.55 fold | 1.10 |  | 
9 | CCCCc1nc2c(N)nc3cccnc3c2s1 [IRM 11, 2-butyl[1,3]thiazolol[4,5-c][1,5]naphthyridin-4-amine] |  | 1.06 fold | 1.35 |  | 
10 | CCCCc1nc2c(N)nc3ccccc3c2n1CCCCNS(C)(=O)=O [IRM 12, N-[4-(4-amino-2-butyl-1H-imidazo[4,5-c]quinolin-1-yl)butyl]methanesulfonamide] | 1.33 | 15.33 fold |  |  | 
11 | Nc1nc2ccccc2c2c1nc1n2CCCC1 [IRM 13, 8,9,10,11-tetrahydropyrido[1′,2′:1,2]imidazol[4,5-c]quinolin-6-amine] |  | 2.39 fold | 1.20 |  | 
12 | COCCc1nc2c(N)nc3ccccc3c2n1CCCCNC(=O)c1ccc(-n2cccc2)nc1 [IRM 14, N^3-{4-[4-amino-2-(2-methoxyethyl)-1H-imidazo[4,5-c]quinolin-1-yl]butyl}-6-(1H-1-pyrrolyl)nicotinamide] | 1.31 | 1.37 fold |  |  | 
13 | CCCCc1nc2c(N)nc3ccccc3c2n1CCNS(C)(=O)=O [IRM 15, N-[2-(4-amino-2-butyl-1H-imidazo[4,5-c]quinolin-1-yl)ethyl]methanesulfonamide] | 1.04 | 1.88 fold |  |  | 
14 | COCCc1nc2c(N)nc3ccccc3c2n1CCCCNC(=O)N1CCOCC1 [IRM 16, N-{4-[4-amino-2-(2-methoxyethyl)-1H-imidazo[4,5-c]quinolin-1-yl]butyl}morpholine-4-carboxamide] | 0.98 | 1.51 fold |  |  | 
15 | CCCCc1nc2c(N)nc(C)c(C)c2n1CCCCNS(C)(=O)=O [IRM 17, N-[4-(4-amino-2-butyl-6,7-dimethyl-1H-imidazo[4,5-c]pyridin-1-yl)butyl]methanesulfonamide] | 0.99 | 2.79 fold and 2.71 fold |  |  | 
16 | Peptidoglycan |  |  |  |  | inhibited by the antibodies to a greater extent
